# Columns and labels:
# NO (nitric oxide) = test: NO production in TNF-α-stimulated chondrocytes; assay type: cell-based, porcine; settings: chondrocytes stimulated by TNF-α (5 ng/ml), after 48 hours, HS—Cf in different concentrations
# Excerpt: (§1) The following embodiments show suppression effect of HS—Cf on those factors involved in signaling pathways of TNF-α-induced IRF-1 expression and prevention effect of HS—Cf on TNF-mediated collagen loss and proteoglycan loss. All porcine chondrocytes used are obtained from the hind leg joints of pigs.
# (§2) NO (nitric oxide) is generated by TNF-α-induced iNOS so that iNOS expression is correlated with NO production. HS—Cf in different concentrations are delivered to chondrocytes stimulated by TNF-α (5 ng/ml).
# [1] = tested on: ADAMTS-4, also called Aggrecanase-1; test: TNF-α-induced ADAMTS-4 mRNA expression by Q-PCR; assay type: cell-based; settings: porcine chondrocytes, HS—Cf 2 hours, then TNF-α (5 ng/ml) four hours
# Protocol: as §1
# (§3) TNF-α induced ADAMTS-4 is one of the factors that damage and destroy cartilage. Mix HS—Cf in different concentrations with porcine chondrocytes and react for 2 hours. Then add TNF-α (5 ng/ml) to stimulate cells for four hours. Next measure mRNA expression by Q-PCR.
# [2] = tested on: matrix metalloproteinase-3 (MMP-3); test: TNF-α-induced MMP-3 mRNA expression by Q-PCR; assay type: cell-based; settings: porcine chondrocytes, HS—Cf 2 hours, then TNF-α (5 ng/ml) four hours
# Protocol: as §1
# as §3, with “TNF-α-induced MMP-3” for “TNF-α induced ADAMTS-4”, “porcine chondrocytes” for “cells”, “real-time quantitative-polymerase chain reaction (Q-PCR).” for “Q-PCR.”
# porcine chondrocytes [3] = test: MTT cell viability assay; assay type: cell-based; settings: any of the concentrations
# Excerpt: (§4) Cytotoxicity of HS—Cf also has been checked. HS—Cf is used as a pharmaceutical composition so that cytotoxicity of HS—Cf has to be carefully considered for determining whether HS—Cf can be used for treatment of osteoarthritis. […] Thus HS—Cf is used in treatment of organisms.
# [4] = tested on: ADAMTS-5, also called Aggrecanase-2; test: TNF-α-induced ADAMTS-5 mRNA expression by Q-PCR; assay type: cell-based; settings: porcine chondrocytes, HS—Cf 2 hours, then TNF-α (5 ng/ml) four hours
# Protocol: as §1
# TNF-α induced ADAMTS-5 is one of the factors that damage and destroy cartilage. Mix HS—Cf in different concentrations with porcine chondrocytes and react for 2 hours. Then add TNF-α (5 ng/ml) to stimulate cells for four hours. Next observe mRNA expression by Q-PCR.
# [5] = tested on: matrix metalloproteinase-1 (MMP-1); test: TNF-α-induced MMP-1 mRNA expression by Q-PCR; assay type: cell-based; settings: porcine chondrocytes, HS—Cf 2 hours, then TNF-α (5 ng/ml) four hours
# Protocol: as §1
# as §3, with “TNF-α-induced MMP-1” for “TNF-α induced ADAMTS-4”, “porcine chondrocytes” for “cells”, “real-time quantitative-polymerase chain reaction (Q-PCR).” for “Q-PCR.”
# porcine chondrocytes [6] = test: lactate dehydrogenase (LDH) assay; assay type: cell-based; settings: any of the concentrations
# Excerpt: as §4
# collagen II = test: Loss prevention of collagen II under TNF-α stimulation, Western blot; assay type: cell-based; settings: porcine chondrocytes, HS—Cf 24 hours, then TNF-α (5 ng/ml) 48 hours
# Protocol: as §1
# As shown in the figure, after mixing porcine chondrocytes with TNF-α (5 ng/ml), the amount of collagen II at different times is determined by Western Blot. It is confirmed that collagen II is degraded and lost along with the time under TNF-α stimulation. […] Then add TNF-α (5 ng/ml) to stimulate porcine chondrocytes for 48 hours. Next use western blot to measure the amount of protein.
# proteoglycan (aggrecan) = test: Loss prevention of proteoglycan under TNF-α stimulation, Safranin-O staining; assay type: cell-based; settings: porcine chondrocytes, 5/or 10 μM HS—Cf 24 hours, then TNF-α (5 ng/ml) 72 hours
# Protocol: as §1
# Besides collagen II, loss of proteoglycan (aggrecan) is also affected by HS—Cf. […] Then add TNF-α (5 ng/ml) to stimulate porcine chondrocytes for 72 hours. Next use Safranin-O staining to observe the amount of proteoglycan in cartilaginous tissue.
# [7] = tested on: matrix metalloproteinase-13 (MMP-13); test: TNF-α-induced MMP-13 mRNA expression by Q-PCR; assay type: cell-based; settings: porcine chondrocytes, HS—Cf 2 hours, then TNF-α (5 ng/ml) four hours
# Protocol: as §1
# Mix HS—Cf in different concentrations with porcine chondrocytes and react for 2 hours. Then add TNF-α (5 ng/ml) to stimulate cells for four hours. Next observe mRNA expression by real-time quantitative-polymerase chain reaction (Q-PCR).
# [8] = tested on: inducible nitric oxide synthase (iNOS); test: TNF-α-induced iNOS expression in chondrocytes; assay type: cell-based, porcine; settings: chondrocytes stimulated by TNF-α (5 ng/ml), after 48 hours, HS—Cf in different concentrations
# Excerpt: as §1, §2
smiles,measurement,setting,value
"O=C(Nc1cccc(C(F)(F)F)c1)c1ccccc1O [HS—Cf, 2-hydroxy-N-[3-(trifluoromethyl)phenyl]benzamide]",NO production,NO (nitric oxide),NO production is also reduced along with the increasing concentration
same,ADAMTS-4 mRNA expression,[1],ADAMTS-4 expression is decreased along with the increasing concentration
same,MMP-3 mRNA expression,[2],decreases MMP-3 expression at higher concentration
same,cytotoxicity (MTT cell viability assay),porcine chondrocytes [3],no obvious cytotoxic effect
same,ADAMTS-5 mRNA expression,[4],ADAMTS-5 expression is decreased along with the increasing concentration
same,MMP-1 mRNA expression,[5],MMP-1 expression is decreased along with the increasing concentration
same,cytotoxicity (LDH assay),porcine chondrocytes [6],no obvious cytotoxic effect
same,degradation and loss of collagen II,collagen II,degradation and loss of collagen II is under control
same,degradation and loss of proteoglycan,proteoglycan (aggrecan),degradation and loss of proteoglycan is under control
same,MMP-13 mRNA expression,[7],MMP-13 expression is decreased along with the increasing concentration
same,iNOS expression,[8],significantly decreases iNOS expression at higher concentration
